From US9243247B2, “Composition for promoting apoptosis or inhibiting cell growth, comprising epstein-barr virus microrna” (Catholic University Industry Academic Cooperation Foundation, priority 2011, dated 2016)

What was measured:
Assay type in all cases: cell-based
[1] = test system: AGS cell strain; assay: Cell growth test (CCK-8 assay) after transfection of BART miRNA mimics; conditions: mimic 10 nM, 72 hours after transfection, relative to scrambled control (=1)
Method: An AGS cell strain (Korean Cell Line Bank), which is a stomach cancer cell strain, was cultured in an RPMI1640 (Gibco) culture medium including 10% fetal bovine serum. Mature type synthesized BART miRNAs were transfected to the AGS cell strain by using G-fectin (Genolution) according to a protocol of the manufacture.
To investigate the effect of individual EBV BART miRNAs on the AGS cell strain, the synthesized miRNAs were transfected to the AGS cell strain and, after 72 hours, cells were counted by CCK-8 assay.
Immediately after the AGS cell strain, which is an EBV-negative cell strain, was divided into 96-well plate having 1×10^3 cells/well, a synthesized miRNA (10 nM) was transfected by using G-fectin. After the transfection, according to the experimental objective, the cells were cultured at 37° C. in an incubator, and then CCK-8 was divided among the wells by allocating 10 μl of CCK-8 to each well and the resulting mixture was cultured in an incubator at 37° C. for two hours. Then, the light absorbance was measured with an ELISA measuring instrument.
By the method described in Example 3, miR-BART5-5p mimic or miR-BART15-3p mimic (10 nM) were transfected to the AGS cell strain, and the effect thereof on cell growth was investigated over time.
miR-BART5-5p, miR-BART15-3p, and miR-BART20-3p were transfected to the AGS cell strain (1×10^3 cells/well) in a concentration of 1, 3, 10, and 30 nM, and the effect on cell growth was investigated. Immediately after the AGS cell strain was divided into a 96-well plate such that 1×10^3 AGS cells were allocated to each well, a synthesized miRNA was transfected by using G-fectin. Seventy two hours after the transfection, CCK-8 was divided among the wells by allocating 10 μl of CCK-8 to each well, and the resulting mixture was cultured at 37° C. in an incubator for two hours.

[2] = test system: AGS cell strain; assay: Measurement of apoptosis (Annexin V staining, FACS); conditions: for Relative Apoptotic cell: AGS, mimic 10 nM, 10 uM 5-FU 24 h after transfection, then 48 hours, Annexin V, relative to scrambled control (=1), n=9; for effect on cell growth and apoptosis (summary statement): mimics transfected to AGS, tumor cell strain not infected with EBV
Method: Immediately after the AGS cell strain, which is an EBV-negative cell strain, was divided was divided into a 6-well plate such that 2×10^5 AGS cells were allocated to each well, a synthesized miRNA (10 nM) was transfected by using G-fectin and the resulting mixture was cultured at 37 t in an incubatorTwenty four hours after the transfection, 10 uM of 5-FU was treated and the resulting mixture was cultured in an incubator at 37° C. for 48 hours. The cells were detached by using Trypsin-EDTA and washed with PBS two times. Afterwards, the cells were treated with a PE Annexin V Apoptosis Detection Kit and the changed ratio of apoptotic cell was investigated by FACS (FIG. 7).
Immediately after the AGS cell strain, which is an EBV-negative cell strain, is divided into a 6-well plate such that 2×10^5 AGS cells were allocated to each well, a synthesized miRNA (10 nM) was transfected by using G-fectin and the resulting mixture was cultured at 37° C. Twenty four hours after the transfection, 10 uM of 5-FU, which is an anti-cancer agent, was treated and the resulting mixture was cultured in an incubator at 37° C. for 48 hours. The cells were detached by using Trypsin-EDTA and washed with PBS two times. Afterwards, the cells were treated with a PE Annexin V Apoptosis Detection Kit and the ratio of cells where apoptosis took place was measured by FACS.

[3] = test system: AGS cell strain; assay: Effect on cell cycle (propidium iodide staining, FACS, sub G1); conditions: mimic 10 nM, 10 uM 5-FU 24 h after transfection, then 48 hours, relative to scrambled control (=1)
Method: The AGS cells were divided into a 96-well plate such that 2×10^5 AGS cells were allocated to each well, and synthesized miRNAs (10 nM) were transfected and cultured at 37° C. in an incubator. Twenty four hours after the transfection, 10 uM of 5-FU, which is an anti-cancer agent, was treated in one case or not treated in another case, and then the resulting mixture was cultured in an incubator at 37° C. for 48 hours. The cells were detached by using Trypsin-EDTA and washed with PBS two times.
Immediately after the AGS cell strains, which are EBV-negative cell strains, were divided into a 6-well plate such that 2×10^5 AGS cells were allocated to each well, a synthesized miRNA (10 nM) was transfected by using G-fectin and cultured at 37° C. in an incubator. Twenty four hours after the transfection, 10 uM of 5-FU was treated and the resulting mixture was cultured at 37° C. in an incubator for 48 hours. The cells were detached by using Trypsin-EDTA and washed with PBS two times. Afterwards, DNA was stained by propidium iodide staining and the ratio of cells where cell cycle was changed was investigated by FACS.

Row | Substance | Relative Cell Growth ([1]; n=9) | Relative Apoptotic cell [2] | effect on cell growth and apoptosis (summary statement) [2] | Relative Sub G1 [3] | also measured
1 | BART4-5p: EBV BART miRNA mimic, double stranded RNA; sense SEQ NO: 5, antisense SEQ NO: 6 (sense GACCUGAUGCUGCUGGUGUGCU; antisense AGCACACCAGCAGCAUCAGGUC; chemistry not given here) | 0.9348 | 1.204 | inhibit cell growth and promote apoptosis | 1.236 | Relative Apoptotic cell ([2]; listed as miR-BART4-5p): significantly higher; Relative Sub G1 ([3]; listed as miR-BART4-5p): increased
2 | BART2-3p: EBV BART miRNA mimic, double stranded RNA; sense SEQ NO: 87, antisense SEQ NO: 88 (sense AAGGAGCGAUUUGGAGAAAAUAAA; antisense UUUAUUUUCUCCAAAUCGCUCCUU; chemistry not given here) | 1.433 | 1.062 | inhibit cell growth and promote apoptosis | 1.178 | Relative Apoptotic cell ([2]; listed as 2-3p): significantly higher
3 | BART1-5p: EBV BART miRNA mimic, double stranded RNA; sense SEQ NO: 9, antisense SEQ NO: 10 (sense UCUUAGUGGAAGUGACGUGCUGUG; antisense CACAGCACGUCACUUCCACUAAGA; chemistry not given here) | 1.141 | 1.08 | inhibit cell growth and promote apoptosis | 0.8028 | Relative Apoptotic cell ([2]; listed as 1-5p): significantly higher
4 | BART15-5p: EBV BART miRNA mimic, double stranded RNA; sense SEQ NO: 13, antisense SEQ NO: 14 (sense AGGGAAACAUGACCACCUGAAGUC; antisense GACUUCAGGUGGUCAUGUUUCCCU; chemistry not given here) | 0.9545 | 1.022 |  | 0.8195 | 
5 | BART18-3p: EBV BART miRNA mimic, double stranded RNA; sense SEQ NO: 39, antisense SEQ NO: 40 (sense UAUCGGAAGUUUGGGCUUCGUC; antisense GACGAAGCCCAAACUUCCGAUA; chemistry not given here) | 1.393 | 0.8705 |  | 0.9963 | 
6 | BART10-5p: EBV BART miRNA mimic, double stranded RNA; sense SEQ NO: 57, antisense SEQ NO: 58 (sense GCCACCUCUUUGGUUCUGUACA; antisense UGUACAGAACCAAAGAGGUGGC; chemistry not given here) | 1.646 | 0.8373 |  | 0.833 | 
7 | BART11-5p: EBV BART miRNA mimic, double stranded RNA; sense SEQ NO: 61, antisense SEQ NO: 62 (sense UCAGACAGUUUGGUGCGCUAGUUG; antisense CAACUAGCGCACCAAACUGUCUGA; chemistry not given here) | 1.08 | 1.006 |  | 1.081 | 
8 | BART21-5p: EBV BART miRNA mimic, double stranded RNA; sense SEQ NO: 33, antisense SEQ NO: 34 (sense UCACUAGUGAAGGCAACUAAC; antisense GUUAGUUGCCUUCACUAGUGA; chemistry not given here) | 1.304 | 0.9207 |  | 1.087 | 
9 | BART17-5p: EBV BART miRNA mimic, double stranded RNA; sense SEQ NO: 25, antisense SEQ NO: 26 (sense UAAGAGGACGCAGGCAUACAAG; antisense CUUGUAUGCCUGCGUCCUCUUA; chemistry not given here) | 0.9551 | 1.004 |  | 1.099 | 
10 | BART13-5p: EBV BART miRNA mimic, double stranded RNA; sense SEQ NO: 77, antisense SEQ NO: 78 (sense AACCGGCUCGUGGCUCGUACAG; antisense CUGUACGAGCCACGAGCCGGUU; chemistry not given here) | 1.326 | 1.077 | inhibit cell growth and promote apoptosis | 1.178 | Relative Apoptotic cell ([2]; listed as 13-5p): significantly higher; Relative Sub G1 ([3]; listed as 13-5p): increased
11 | BART17-3p: EBV BART miRNA mimic, double stranded RNA; sense SEQ NO: 27, antisense SEQ NO: 28 (sense UGUAUGCCUGGUGUCCCCUUAGU; antisense ACUAAGGGGACACCAGGCAUACA; chemistry not given here) | 0.7865 | 1.088 | inhibit cell growth and promote apoptosis | 1.067 | Relative Cell Growth ([1]; n=9, listed as miR-BART17-3p): inhibited cell growth; Relative Apoptotic cell ([2]; listed as 17-3p): significantly higher; Relative Sub G1 ([3]; listed as 17-3p): increased
12 | BART22-3p: EBV BART miRNA mimic, double stranded RNA; sense SEQ NO: 55, antisense SEQ NO: 56 (sense UUACAAAGUCAUGGUCUAGUAGU; antisense ACUACUAGACCAUGACUUUGUAA; chemistry not given here) | 1.495 | 1.106 |  | 1.054 | 
13 | BART4-3p: EBV BART miRNA mimic, double stranded RNA; sense SEQ NO: 7, antisense SEQ NO: 8 (sense CACAUCACGUAGGCACCAGGUGU; antisense ACACCUGGUGCCUACGUGAUGUG; chemistry not given here) | 1.065 | 1.133 | inhibit cell growth and promote apoptosis | 0.755 | Relative Apoptotic cell ([2]; listed as 4-3p): significantly higher
